In this assay the target is T1, Human neutrophil elastase (Homo sapiens, UniProt P08246).
T1 construct: purchased Elastin Products Company, Inc. (EPC, Owensville, USA) SE563
T1 sequence (P08246 30-267): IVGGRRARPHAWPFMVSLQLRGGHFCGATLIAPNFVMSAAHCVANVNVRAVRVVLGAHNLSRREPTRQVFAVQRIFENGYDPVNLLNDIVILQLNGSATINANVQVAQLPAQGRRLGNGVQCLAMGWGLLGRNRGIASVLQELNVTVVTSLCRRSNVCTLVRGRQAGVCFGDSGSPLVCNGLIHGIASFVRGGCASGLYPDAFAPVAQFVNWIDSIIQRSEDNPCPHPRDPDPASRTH
Kind of assay: HNE inhibitory activity in vitro (fluorescence-quenched substrate). In kind it is biochemical.

With `CCC(C)[C@@H]1NC(=O)[C@H](Cc2ccc(O)cc2)N(C)C(=O)[C@H](C(C)CC)N2C(=O)C(CC[C@@H]2O)NC(=O)[C@H](CC(C)C)NC(=O)[C@@H](NC(=O)[C@H](CCC(N)=O)NC(=O)C(C)C)[C@@H](C)OC1=O` (stereo partly shown) [formula II], the IC50 was determined as 10 nM.

(Values after US9127044B2, “Cyclic depsipeptides” (NOVARTIS AG, priority 2007, dated 2015).)
